Each structure is given as a SMILES string. pIC50: −log10 of the molar value. The source made the active and inactive calls. The rule behind the calls is not given here.

The results in this text go back to PubChem BioAssay AID504322 (Emory University Molecular Libraries Screening Center, 2011).

The test system of this test is CHOP reporter cell assay, percent of control. In words: CHOP reporter inhibitor potency, dose response, cell-based (AID 504322).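 Note: CHO cells carrying a CHOP reporter stimulated with tunicamycin to induce ER stress; potency is for inhibition of the stress-induced reporter signal.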
A word on the IC50: it is the point on the concentration scale where inhibition reaches its midpoint. With `FC(F)(F)c1cccc(Sc2nc(-c3ccccc3)nnc2C(F)(F)F)c1`, the IC50 is 9.58 µM (inactive).
What is called pIC50 is the negative decadic logarithm of the IC50, by convention in mol/L. For the molecule `CCOC(=O)c1c(NC(=O)Cc2cccs2)sc(C(=O)NC2CCCCC2)c1C`, the negative-log IC50 (pIC50) was 5.52.
On the same count and under the same terms, the figure for `COc1ccccc1-n1cc([C@@H]2C[C@H]3CN(c4ccccc4)C(=O)[C@]34CCCN24)cn1` is 5.72.
Turning to `CCc1ccc(-c2nc(CSCC(=O)NCc3ccco3)c(C)o2)cc1`, the pIC50 is above 6.80.
As for `CC(C)CCN(C(=O)Cc1ccc(Cl)c(Cl)c1)c1c(N)n(Cc2ccccc2)c(=O)[nH]c1=O`, the IC50 is 5.74 µM (inactive).
In the case of `Fc1ccc(-n2nnnc2-c2cnc(-c3cccs3)nc2C(F)(F)F)cc1`, the IC50 was 6.67 µM (inactive).
On to `O=C(/C=C/c1cccc(C(F)(F)F)c1)Nc1cccc(C(F)(F)F)c1`, for which the IC50 is 2.49 µM (inactive).
Regarding `Cc1ccc(Nc2nc(N)nc(CN3CCN(c4ccccc4)CC3)n2)cc1Cl`, the pIC50 is 5.07.
For `CCOC(=O)CN1C(c2ccc(O)cc2)Nc2ccc(Br)cc2C1c1ccccc1` (stereo not given), the IC50 is 9.53 µM (inactive).
As for `O=C(COc1ccc(Cl)cc1Cl)Nc1ccccn1`, the pIC50 was 5.61.
Consider `Nc1c(N(C(=O)Nc2ccc(Cl)c(Cl)c2)C2CCCC2)c(=O)[nH]c(=O)n1Cc1ccccc1`, for which the IC50 was > 10 µM (inactive).
Same read-out and setting: under `O=C1NC(=S)S/C1=C\C=C\c1ccc([N+](=O)[O-])o1` stands 9.29 µM (inactive); under `C=C(C)COc1ccc(-c2n[nH]c(C)c2Oc2ccccc2OC)c(O)c1`, 8.82 µM (inactive).
`CC1(c2ccccc2)CC(C)(C)n2c(O)c(C3=NC(=S)NC3=O)c3cccc1c32` (stereo not given): the IC50 was 9.76 µM (inactive).
For the molecule `C=CCc1cccc(/C=N/NC(=O)CCCNc2ccc(C)cc2)c1O`, the IC50 is 9.23 µM (inactive).
For the molecule `CC(C)c1nnc(N2C(=O)c3oc4ccccc4c(=O)c3C2c2ccco2)s1` (stereo not given), the IC50 was > 10 µM (inactive).
For `Cc1ccn2cc(-c3cc4ccccc4oc3=O)nc2c1`, the IC50 is 9.15 µM (inactive).
As for `COc1ccc(-c2cc(C3CCN(Cc4cccc(C(F)(F)F)c4)CC3)[nH]n2)cc1`, the IC50 is 4.11 µM (inactive).
The same measure, in the same setting: the figure for `CCOC(=O)c1c(C)[nH]c(C(=O)COC(=O)c2[nH]c(C)c(C(C)=O)c2C)c1C` is > 10 µM (inactive).
The same measure, in the same setting: the figure for `Cc1cc(C)c(S(=O)(=O)c2ccccc2)c(OC(=O)c2cc(F)c(F)cc2Cl)n1` is 8.2 µM (inactive).
Regarding `CCC(C)(C)c1ccc(Oc2ccc(N)cc2)cc1`, the pIC50 was above 6.80.
Take `CCOC(=O)/C(=C\c1ccc(OC(F)F)cc1)C1=Nn2c(nnc2-c2ccc(Cl)cc2)SC1`: the IC50 was 3.2 µM (inactive).
As to `Cc1ccc(NC(=O)c2ccc(C#CC3(O)CCCCC3)cc2)cc1C`, the IC50 was > 10 µM (inactive).
Regarding `CC1CCCC(NC(=O)COC(=O)/C=C/c2ccc3c(c2)OCO3)C1C` (stereo not given), the IC50 was > 10 µM (inactive).
As for `Cc1ccc(Cn2c(SCC(=O)Nc3cc(C)on3)nc3ccccc3c2=O)cc1`, the IC50 is 5.78 µM (inactive).
Take `NC(=O)CC(NC(=O)Cc1cccc2ccccc12)c1ccc(NCCOc2ccccc2)c([N+](=O)[O-])c1` (stereo not given): the IC50 was 8.33 µM (inactive).
Regarding `COc1c(CC=C(C)C)cc(C2CC(=O)c3c(O)cc(O)cc3O2)cc1CC=C(C)C` (stereo not given), the IC50 is > 10 µM (inactive).
The same measure, in the same setting: the figure for `CCCC(=O)N1CCN(c2ccc(NC(=O)c3cc4ccccc4o3)cc2Cl)CC1` is 5.4 µM (inactive).
In the case of `O=C(Nc1ccc(S(=O)(=O)N2CCOCC2)cc1)c1ccc(CN2CCc3ccccc3C2)cc1`, the negative-log IC50 (pIC50) was above 6.80.
For the molecule `O=C1c2ccccc2-c2onc3ccc(Oc4ccccc4)c1c23`, the IC50 was 9.64 µM (inactive).
The same measure, in the same setting: under `Cc1cccc(N2CCN(C(=O)c3c(C)nn(Cc4ccccc4Cl)c3C)CC2)c1C` stands 9.26 µM (inactive).
In the case of `O=[N+]([O-])c1ccc(/C=N/N=C/c2ccc([N+](=O)[O-])o2)o1`, the pIC50 was 5.75.
Take `CCOc1cc(S(=O)(=O)Nc2ccccc2CC)ccc1Cl`: the IC50 was 7 µM (inactive).
Take `NC(=O)c1cc(-c2ccccc2)nc(N2CCCCCC2)n1`: the IC50 is 9.62 µM (inactive).
On to `CC(C)Cn1c(=O)[nH]c(=O)c2c(C(F)(F)F)cc(-c3ccccc3)nc21`, for which the IC50 was > 10 µM (inactive).
Same read-out and setting: the figure for `Nc1c(C(=O)Nc2nc3ccccc3s2)sc2nc(-c3cccs3)ccc12` is 7.44 µM (inactive); for `C(=N\Nc1ncnc2sc3c(c12)CCC3)/c1cccs1` it is 8.89 µM (inactive); for `Cc1ccc(S(=O)(=O)Nc2ccc(NC(=O)Nc3cccc(C(F)(F)F)c3)cc2)cc1` it is 9.48 µM (inactive).
On the same count and under the same terms, the figure for `CCCCCCSc1nsc(NC(=O)CCC)n1` is 9.9 µM (inactive).
Same read-out and setting: the figure for `CCC(C)c1ccc(O)c(NC(=O)c2cncc(Br)c2)c1` (stereo not given) is 6.67 µM (inactive); for `COc1cccc(-n2nnnc2S(C)(=O)=O)c1` it is 5.51 µM (inactive); for `O=[N+]([O-])c1ccc(COc2ccc(-c3[nH]ncc3-c3ccccc3)c(O)c2)cc1` it is 9.61 µM (inactive).
As to `CCC1(c2ccc(F)cc2)NC(=O)N(CC(=O)Nc2ccc(-c3nc4ccc(C)cc4s3)cc2)C1=O` (stereo not given), the negative-log IC50 (pIC50) was 5.81.
As to `CC(/C=N/n1c(C2CCCCC2)n[nH]c1=S)=C\c1ccccc1`, the IC50 is 5.88 µM (inactive).
Regarding `C=C(C)C(=O)OC1(C(F)(F)F)Oc2cc(C)ccc2NC1=O` (stereo not given), the IC50 is 5.82 µM (inactive).
With `CCCCCCCCCCCCCCCC[n+]1cccc(C(=O)N(CC)CC)c1`, the IC50 is 5.06 µM (inactive).
On the same count and under the same terms, under `Oc1ccc(/C=N/Nc2nc(N3CCCCCC3)nc(N3CCCCCC3)n2)c(O)c1` stands 9.82 µM (inactive).
As to `CC(=O)/C=C/n1c(=S)oc2ccccc21`, the pIC50 was 5.33.
Turning to `O=C1C(=C2SCCCS2)CC/C1=C\c1ccc(F)cc1`, the IC50 was 4.38 µM (inactive).
The same measure, in the same setting: the figure for `Cc1cccc(OCc2n(CC(=O)OC3CC(C)CCC3C(C)C)c3ccccc3[n+]2C)c1` (stereo not given) is > 10 µM (inactive).
The same measure, in the same setting: under `Cc1ccc(C(=O)N/C(=C\c2ccc(Br)cc2)c2nc(=S)[nH][nH]2)cc1` stands 9.7 µM (inactive); under `CCCC(=O)OCCNc1cc(Sc2nc3ccccc3[nH]2)c2nonc2c1[N+](=O)[O-]`, 5.35 µM (inactive).
Consider `CS(=O)(=O)c1ncc(Cl)c(C(=O)Nc2ccc(N3CCOCC3)cc2)n1`, for which the IC50 is > 10 µM (inactive).
On the same count and under the same terms, the figure for `Cc1cc(Cl)ccc1OCC(=O)N[C@@H](Cc1ccccc1)c1nc2ccccc2[nH]1` is 9.23 µM (inactive).
As to `Cn1c(=O)[nH]c(=O)c2c1nc([N+](=O)[O-])n2Cc1ccccc1`, the pIC50 was 5.33.
For `Clc1ccc2c(N/N=C/c3ccc(Br)cc3)ccnc2c1`, the IC50 is 9.92 µM (inactive).
For the molecule `C=C1C(=O)C=C2CN(C(=O)c3ccccc3)[C@@](Cc3ccc(F)cc3)(C(=O)OC)[C@@H]12`, the pIC50 was 5.94.
Regarding `CC(C)(C)c1ccc(C(O)CCCN2CCC(C(O)(c3ccccc3)c3ccccc3)CC2)cc1` (stereo not given), the IC50 was 4.12 µM (inactive).
As to `CCOC(=O)C(NC(=O)Nc1cccc(C)n1)(OCC(F)(F)F)C(F)(F)F` (stereo not given), the IC50 was > 10 µM (inactive).
On the same count and under the same terms, under `CC(=O)OCCCNc1cc(Sc2ccc(Cl)cc2)c2nonc2c1[N+](=O)[O-]` stands > 10 µM (inactive); under `O=Nc1ccc(O)c2ncccc12`, 8.83 µM (inactive).
Still for that read-out and setting: under `Cc1ccc(CNCc2cc3c(C(C)(C)C)nn(-c4ccccc4)c3[nH]c2=O)cc1` stands 7.24 µM (inactive).
Consider `N#C/C(=C\c1ccc([N+](=O)[O-])o1)C(=O)Nc1ccc(F)cc1`, for which the IC50 was > 10 µM (inactive).
The same measure, in the same setting: under `FC(F)(F)c1cccc(NC(=S)N2CCN(c3cccc(C(F)(F)F)c3)CC2)c1` stands 9.67 µM (inactive); under `C[C@H](NC(=O)c1[nH]cnc1C(=O)Nc1ccc(Cl)cc1)C(=O)OC(C)(C)C`, 5.47 µM (inactive).
As for `CN1C2CCC1/C(=C/c1ccccn1)C(=O)/C2=C\c1ccccn1`, the pIC50 is 5.69.
As to `CC(C)(C)OC(=O)CNC(=O)c1[nH]cnc1C(=O)Nc1ccc(Cl)cc1`, the IC50 was 4.69 µM (inactive).
Same read-out and setting: under `CCCCCCn1c(=O)c(C(=O)N/N=C/c2cccc(F)c2)c(O)c2ccccc21` stands 7.03 µM (inactive).
Take `O=S1(=O)C=C(Sc2nnc(-c3ccccc3)o2)c2ccccc21`: the pIC50 is 5.36.
Still for that read-out and setting: under `COc1ccc(OCc2cccc(C(=O)O)c2)cc1` stands 6.06; under `OCCCNc1cc(-c2ccnc(Nc3cccc(Cl)c3)n2)ccn1`, above 6.80.
Turning to `COCCn1cnc2c(c1=O)c1nc3ccccc3nc1n2/N=C/c1cccc(OC)c1`, the IC50 was 8.74 µM (inactive).
On the same count and under the same terms, the figure for `O=C(NCc1ccccc1Cl)c1ccc(S(=O)(=O)Nc2cccc(C(F)(F)F)c2)cc1` is > 10 µM (inactive).
Take `Cc1ccccc1CS(=O)(=O)c1nnc([C@H](CC(C)C)NC(=O)OC(C)(C)C)o1`: the negative-log IC50 (pIC50) is 5.33.
Turning to `CCC(=O)N1N=C(c2c(-c3ccccc3)c3cc(Cl)ccc3[nH]c2=O)CC1c1ccco1` (stereo not given), the IC50 is 8.96 µM (inactive).
Regarding `COc1cc(OC)nc(-n2ncc(Br)c(Br)c2=O)n1`, the negative logarithm of the IC50 (pIC50) is 5.71.
Same read-out and setting: the figure for `N#C/C(=C\c1ccc([N+](=O)[O-])o1)c1nc2ccccc2[nH]1` is 5.56.
As for `CC(C)C[C@H](NC(=O)OC(C)(C)C)c1nnc(SCC(=O)Nc2ccc(Br)cc2)o1`, the IC50 was 5.57 µM (inactive).
Regarding `CC(C)C[C@H](NC(=O)c1[nH]cnc1C(=O)N[C@@H](C)C(=O)OC(C)(C)C)C(=O)OC(C)(C)C`, the IC50 is 3.69 µM (inactive).
Consider `O=C(Nc1ccc(-c2nc3ccccc3o2)cc1)c1ccc(N2CCOCC2)c([N+](=O)[O-])c1`, for which the pIC50 was 5.45.
In the case of `O=C1C(N2CCOCC2)=C(n2nnc3ccccc32)C(=O)c2ccccc21`, the IC50 was 9.64 µM (inactive).
`N#Cc1nccnc1S(=O)(=O)c1cccs1`: the negative-log IC50 (pIC50) was 5.57.
For the molecule `O=C(Cc1ccccc1)Nc1cccc(N2C(=O)C=CC2=O)c1`, the IC50 was 9.71 µM (inactive).
As to `Cc1c(CN2CCC(CO)(CCOc3ccccc3)CC2)[nH]c2c(Cl)cccc12`, the IC50 was 9.13 µM (inactive).
As to `Cc1cc(/C=N/Nc2nc(N)ncc2[N+](=O)[O-])c(C)n1-c1cccc(C(F)(F)F)c1`, the IC50 was 9.14 µM (inactive).
